Tested on: not listed separately
Test: Cytotoxicity against human WI38 cells assessed as inhibition of proliferation after 24 hrs by SRB assay
Assay type: cell-based
Conditions: WI-38, 24 h

SMILES | IC50 [µM]
COc1ccc(C(=O)/C=C/c2ccc(C(=O)O)cc2)c(OC)c1 | 48.6
COc1ccc(C(=O)/C=C/c2ccc(C(=O)OC3O[C@@H]4O[C@]5(C)CC[C@H]6[C@H](C)CC[C@@H]([C@H]3C)[C@@]46OO5)cc2)cc1OC (stereo partly drawn) | > 100
Cc1ccc(C(=O)/C=C/c2ccc(C(=O)O)cc2)o1 | 32
COc1ccc(C(=O)/C=C/c2ccc(C(=O)O)cc2)cc1[N+](=O)[O-] | 29
O=C(O)c1ccc(/C=C/C(=O)c2ccc(Cl)c(Cl)c2Cl)cc1 | 20.4

Tested on: UACC-62
Test: Selectivity index, ratio of IC50 for human WI38 cells to IC50 for human UACC62 cells
Assay type: functional
Conditions: not given

SMILES | Ratio IC50
COc1ccc(C(=O)/C=C/c2ccc(C(=O)O)cc2)c(OC)c1 | 7.2
COc1ccc(C(=O)/C=C/c2ccc(C(=O)OC3O[C@@H]4O[C@]5(C)CC[C@H]6[C@H](C)CC[C@@H]([C@H]3C)[C@@]46OO5)cc2)cc1OC (stereo partly drawn) | >19
Cc1ccc(C(=O)/C=C/c2ccc(C(=O)O)cc2)o1 | 0.6
COc1ccc(C(=O)/C=C/c2ccc(C(=O)O)cc2)cc1[N+](=O)[O-] | 2.2
O=C(O)c1ccc(/C=C/C(=O)c2ccc(Cl)c(Cl)c2Cl)cc1 | 1

Tested on: not listed separately
Test: Selectivity index, ratio of IC50 for human WI38 cells to IC50 for chloroquine-sensitive Plasmodium falciparum 3D7
Assay type: toxicity, cell-based, WI-38
Conditions: read-out: Ratio IC50

SMILES | selectivity ratio
COc1ccc(C(=O)/C=C/c2ccc(C(=O)O)cc2)c(OC)c1 | 3.3
COc1ccc(C(=O)/C=C/c2ccc(C(=O)OC3O[C@@H]4O[C@]5(C)CC[C@H]6[C@H](C)CC[C@@H]([C@H]3C)[C@@]46OO5)cc2)cc1OC (stereo partly drawn) | > 29800
Cc1ccc(C(=O)/C=C/c2ccc(C(=O)O)cc2)o1 | 1.7
COc1ccc(C(=O)/C=C/c2ccc(C(=O)O)cc2)cc1[N+](=O)[O-] | 0.7
O=C(O)c1ccc(/C=C/C(=O)c2ccc(Cl)c(Cl)c2Cl)cc1 | 0.5

Tested on: not listed separately
Test: Resistance index, ratio of IC50 for chloroquine-resistant Plasmodium falciparum W2 to IC50 for chloroquine-sensitive Plasmodium falciparum 3D7
Assay type: functional
Conditions: not given

SMILES | Ratio IC50
COc1ccc(C(=O)/C=C/c2ccc(C(=O)O)cc2)c(OC)c1 | 1
C[C@H]1[C@@H](O)O[C@@H]2O[C@@]3(C)CC[C@H]4[C@H](C)CC[C@@H]1[C@@]24OO3 [ARTENIMOL] | 0.9
COc1ccc(C(=O)/C=C/c2ccc(C(=O)OC3O[C@@H]4O[C@]5(C)CC[C@H]6[C@H](C)CC[C@@H]([C@H]3C)[C@@]46OO5)cc2)cc1OC (stereo partly drawn) | 0.4
Cc1ccc(C(=O)/C=C/c2ccc(C(=O)O)cc2)o1 | 0.9
COc1ccc(C(=O)/C=C/c2ccc(C(=O)O)cc2)cc1[N+](=O)[O-] | 0.8
O=C(O)c1ccc(/C=C/C(=O)c2ccc(Cl)c(Cl)c2Cl)cc1 | 1.5

Tested on: not listed separately
Test: Selectivity index, ratio of IC50 for chloroquine-resistant Plasmodium falciparum W2 to IC50 for human MCF7 cells
Conditions: not given

SMILES | Ratio IC50
COc1ccc(C(=O)/C=C/c2ccc(C(=O)O)cc2)c(OC)c1 | 1.9
COc1ccc(C(=O)/C=C/c2ccc(C(=O)OC3O[C@@H]4O[C@]5(C)CC[C@H]6[C@H](C)CC[C@@H]([C@H]3C)[C@@]46OO5)cc2)cc1OC (stereo partly drawn) | >2329
Cc1ccc(C(=O)/C=C/c2ccc(C(=O)O)cc2)o1 | 1.1
COc1ccc(C(=O)/C=C/c2ccc(C(=O)O)cc2)cc1[N+](=O)[O-] | 0.3
O=C(O)c1ccc(/C=C/C(=O)c2ccc(Cl)c(Cl)c2Cl)cc1 | 0.1

Tested on: MCF7
Test: Anticancer activity against human MCF7 cells assessed as inhibition of cell growth after 24 hrs by SRB assay
Assay type: functional, cell-based
Conditions: MCF7, 24 h

SMILES | IC50 [µM]
C=C1C(=O)O[C@@H]2C3O[C@]3(C)CC/C=C(\C)CC[C@@H]12 (stereo partly drawn) | 2.4
COc1ccc(C(=O)/C=C/c2ccc(C(=O)O)cc2)c(OC)c1 | 28.1
COc1ccc(C(=O)/C=C/c2ccc(C(=O)OC3O[C@@H]4O[C@]5(C)CC[C@H]6[C@H](C)CC[C@@H]([C@H]3C)[C@@]46OO5)cc2)cc1OC (stereo partly drawn) | 3.4
Cc1ccc(C(=O)/C=C/c2ccc(C(=O)O)cc2)o1 | 19.7
COc1ccc(C(=O)/C=C/c2ccc(C(=O)O)cc2)cc1[N+](=O)[O-] | 9.52
O=C(O)c1ccc(/C=C/C(=O)c2ccc(Cl)c(Cl)c2Cl)cc1 | 8.73

Tested on: WI-38
Test: Selectivity index, ratio of IC50 for human WI38 cells to IC50 for human TK10 cells
Assay type: functional
Conditions: not given

SMILES | Ratio IC50
COc1ccc(C(=O)/C=C/c2ccc(C(=O)O)cc2)c(OC)c1 | 0.8
COc1ccc(C(=O)/C=C/c2ccc(C(=O)OC3O[C@@H]4O[C@]5(C)CC[C@H]6[C@H](C)CC[C@@H]([C@H]3C)[C@@]46OO5)cc2)cc1OC (stereo partly drawn) | >17
Cc1ccc(C(=O)/C=C/c2ccc(C(=O)O)cc2)o1 | 0.4
COc1ccc(C(=O)/C=C/c2ccc(C(=O)O)cc2)cc1[N+](=O)[O-] | 1.4
O=C(O)c1ccc(/C=C/C(=O)c2ccc(Cl)c(Cl)c2Cl)cc1 | 0.9

Tested on: not listed separately
Test: Selectivity index, ratio of IC50 for chloroquine-resistant Plasmodium falciparum W2 to IC50 for human UACC62 cells
Parameters: species or system UACC-62
Conditions: not given

SMILES | Ratio IC50
COc1ccc(C(=O)/C=C/c2ccc(C(=O)O)cc2)c(OC)c1 | 0.5
COc1ccc(C(=O)/C=C/c2ccc(C(=O)OC3O[C@@H]4O[C@]5(C)CC[C@H]6[C@H](C)CC[C@@H]([C@H]3C)[C@@]46OO5)cc2)cc1OC (stereo partly drawn) | >3556
Cc1ccc(C(=O)/C=C/c2ccc(C(=O)O)cc2)o1 | 3.3
COc1ccc(C(=O)/C=C/c2ccc(C(=O)O)cc2)cc1[N+](=O)[O-] | 0.4
O=C(O)c1ccc(/C=C/C(=O)c2ccc(Cl)c(Cl)c2Cl)cc1 | 0.3

Tested on: TK-10
Test: Anticancer activity against human TK10 cells assessed as inhibition of cell growth after 24 hrs by SRB assay
Assay type: functional, cell-based
Conditions: TK-10, 24 h

SMILES | IC50 [µM]
C=C1C(=O)O[C@@H]2C3O[C@]3(C)CC/C=C(\C)CC[C@@H]12 (stereo partly drawn) | 3.71
COc1ccc(C(=O)/C=C/c2ccc(C(=O)O)cc2)c(OC)c1 | 59.6
COc1ccc(C(=O)/C=C/c2ccc(C(=O)OC3O[C@@H]4O[C@]5(C)CC[C@H]6[C@H](C)CC[C@@H]([C@H]3C)[C@@]46OO5)cc2)cc1OC (stereo partly drawn) | 5.99
Cc1ccc(C(=O)/C=C/c2ccc(C(=O)O)cc2)o1 | 90
COc1ccc(C(=O)/C=C/c2ccc(C(=O)O)cc2)cc1[N+](=O)[O-] | 21.1
O=C(O)c1ccc(/C=C/C(=O)c2ccc(Cl)c(Cl)c2Cl)cc1 | 23.6

Tested on: not listed separately
Test: Anticancer activity against human UACC62 cells assessed as inhibition of cell growth after 24 hrs by SRB assay
Assay type: functional, cell-based
Conditions: UACC-62, 24 h

SMILES | IC50 [µM]
C=C1C(=O)O[C@@H]2C3O[C@]3(C)CC/C=C(\C)CC[C@@H]12 (stereo partly drawn) | 9.71
COc1ccc(C(=O)/C=C/c2ccc(C(=O)O)cc2)c(OC)c1 | 6.75
COc1ccc(C(=O)/C=C/c2ccc(C(=O)OC3O[C@@H]4O[C@]5(C)CC[C@H]6[C@H](C)CC[C@@H]([C@H]3C)[C@@]46OO5)cc2)cc1OC (stereo partly drawn) | 5.19
Cc1ccc(C(=O)/C=C/c2ccc(C(=O)O)cc2)o1 | 58
COc1ccc(C(=O)/C=C/c2ccc(C(=O)O)cc2)cc1[N+](=O)[O-] | 13.4
O=C(O)c1ccc(/C=C/C(=O)c2ccc(Cl)c(Cl)c2Cl)cc1 | 19.7

Tested on: MCF7
Test: Selectivity index, ratio of IC50 for human WI38 cells to IC50 for human MCF7 cells
Assay type: functional
Conditions: not given

SMILES | Ratio IC50
COc1ccc(C(=O)/C=C/c2ccc(C(=O)O)cc2)c(OC)c1 | 1.7
COc1ccc(C(=O)/C=C/c2ccc(C(=O)OC3O[C@@H]4O[C@]5(C)CC[C@H]6[C@H](C)CC[C@@H]([C@H]3C)[C@@]46OO5)cc2)cc1OC (stereo partly drawn) | >29
Cc1ccc(C(=O)/C=C/c2ccc(C(=O)O)cc2)o1 | 1.6
COc1ccc(C(=O)/C=C/c2ccc(C(=O)O)cc2)cc1[N+](=O)[O-] | 3
O=C(O)c1ccc(/C=C/C(=O)c2ccc(Cl)c(Cl)c2Cl)cc1 | 2.3

Tested on: Plasmodium falciparum
Test: Antimalarial activity against chloroquine-resistant Plasmodium falciparum W2 assessed as inhibition of parasite proliferation after 96 hrs by SYBR Green I-based fluorescence method
Assay type: functional, organism-based
Conditions: W2, 96 h

SMILES | IC50 [µM]
C[C@H]1[C@H](OC(=O)CCC(=O)O)O[C@@H]2O[C@@]3(C)CC[C@H]4[C@H](C)CC[C@@H]1[C@@]24OO3 [ARTESUNATE] | 0.00571
COc1ccc(C(=O)/C=C/c2ccc(C(=O)O)cc2)c(OC)c1 | 0.0148
C[C@H]1[C@@H](O)O[C@@H]2O[C@@]3(C)CC[C@H]4[C@H](C)CC[C@@H]1[C@@]24OO3 [ARTENIMOL] | 0.00131
COc1ccc(C(=O)/C=C/c2ccc(C(=O)OC3O[C@@H]4O[C@]5(C)CC[C@H]6[C@H](C)CC[C@@H]([C@H]3C)[C@@]46OO5)cc2)cc1OC (stereo partly drawn) | 0.00146
Cc1ccc(C(=O)/C=C/c2ccc(C(=O)O)cc2)o1 | 0.0173
COc1ccc(C(=O)/C=C/c2ccc(C(=O)O)cc2)cc1[N+](=O)[O-] | 0.0312
O=C(O)c1ccc(/C=C/C(=O)c2ccc(Cl)c(Cl)c2Cl)cc1 | 0.0622

Tested on: Plasmodium falciparum
Test: Antimalarial activity against chloroquine-sensitive Plasmodium falciparum 3D7 assessed as inhibition of parasite proliferation after 96 hrs by SYBR Green I-based fluorescence method
Assay type: functional, organism-based
Conditions: 3D7, 96 h

SMILES | IC50 [µM]
C[C@H]1[C@H](OC(=O)CCC(=O)O)O[C@@H]2O[C@@]3(C)CC[C@H]4[C@H](C)CC[C@@H]1[C@@]24OO3 [ARTESUNATE] | 0.004
COc1ccc(C(=O)/C=C/c2ccc(C(=O)O)cc2)c(OC)c1 | 0.0148
C[C@H]1[C@@H](O)O[C@@H]2O[C@@]3(C)CC[C@H]4[C@H](C)CC[C@@H]1[C@@]24OO3 [ARTENIMOL] | 0.00145
COc1ccc(C(=O)/C=C/c2ccc(C(=O)OC3O[C@@H]4O[C@]5(C)CC[C@H]6[C@H](C)CC[C@@H]([C@H]3C)[C@@]46OO5)cc2)cc1OC (stereo partly drawn) | 0.00336
Cc1ccc(C(=O)/C=C/c2ccc(C(=O)O)cc2)o1 | 0.0183
COc1ccc(C(=O)/C=C/c2ccc(C(=O)O)cc2)cc1[N+](=O)[O-] | 0.0407
O=C(O)c1ccc(/C=C/C(=O)c2ccc(Cl)c(Cl)c2Cl)cc1 | 0.041

Tested on: not listed separately
Test: Selectivity index, ratio of IC50 for chloroquine-resistant Plasmodium falciparum W2 to IC50 for human TK10 cells
Parameters: species or system TK-10
Conditions: not given

SMILES | Ratio IC50
COc1ccc(C(=O)/C=C/c2ccc(C(=O)O)cc2)c(OC)c1 | 4
COc1ccc(C(=O)/C=C/c2ccc(C(=O)OC3O[C@@H]4O[C@]5(C)CC[C@H]6[C@H](C)CC[C@@H]([C@H]3C)[C@@]46OO5)cc2)cc1OC (stereo partly drawn) | >4105
Cc1ccc(C(=O)/C=C/c2ccc(C(=O)O)cc2)o1 | 5.2
COc1ccc(C(=O)/C=C/c2ccc(C(=O)O)cc2)cc1[N+](=O)[O-] | 0.7
O=C(O)c1ccc(/C=C/C(=O)c2ccc(Cl)c(Cl)c2Cl)cc1 | 0.4

Reference: ChEMBL document CHEMBL3396954, “Synthesis and in vitro biological evaluation of dihydroartemisinyl-chalcone esters” (Eur J Med Chem, 2015)
